10 compounds from PubChem BioAssay (NCI) can be followed below.

The structures appear in SMILES notation. Several values for one entry are separate records, joined by “and”; a condition that tells them apart may be missing. Identical values can stand only once.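 Values below derive from 48-hour exposures of cells grown in 96-well plates, with endpoints linearly interpolated between the two concentrations bracketing the appropriate inhibition level. The concentration for 50% growth inhibition is given as GI50. At the TGI there is no net growth.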

Among the test systems are EKVX NSCLC; NCI-H23 lung; NCI-H460 lung; SF-539 CNS; PC-3 prostate; OVCAR-3 ovarian; HOP-62 NSCLC; SNB-19 CNS; SK-MEL-2 melanoma; CAKI-1 renal.
Test in all cases: NCI-60 cell line screen, 48 h

`O=C1C=CC(=O)c2c1ccc1c3ccccc3n(-c3cccc([N+](=O)[O-])c3)c21`: the TGI in the assay with EKVX NSCLC was over 9.51 µM; in the assay on NCI-H23 lung, 6.57 µM; in the assay on NCI-H460 lung, over 10 µM; in the assay with SF-539 CNS, over 6.82 µM; with PC-3 prostate, over 10 µM; with OVCAR-3 ovarian it was 4.57 µM. In addition, the TGI was over 10 µM in the assay on HOP-62 NSCLC, over 10 µM with SNB-19 CNS, over 10 µM in the assay on SK-MEL-2 melanoma and 5.48 µM in the assay on CAKI-1 renal.

Take `C#COc1cccc(Nc2c(C#N)cnc3ncc(NC(=O)CCl)cc23)c1`: the GI50 was over 62.5 µM in the assay with EKVX NSCLC; over 62.5 µM with NCI-H23 lung; 31.9 µM in the assay with NCI-H460 lung; 13.9 µM in the assay on SF-539 CNS; 32.5 µM in the assay with PC-3 prostate; 25.3 µM in the assay with OVCAR-3 ovarian. For the same compound, the GI50 in the assay on HOP-62 NSCLC was over 62.5 µM; in the assay on SNB-19 CNS, 32.1 µM; in the assay with SK-MEL-2 melanoma it was over 62.5 µM; with CAKI-1 renal, over 62.5 µM. The TGI is over 62.5 µM in the assay on EKVX NSCLC; over 62.5 µM in the assay with NCI-H23 lung; over 62.5 µM with NCI-H460 lung; 37.6 µM in the assay with SF-539 CNS; over 62.5 µM in the assay on PC-3 prostate; over 62.5 µM in the assay on OVCAR-3 ovarian. For the same compound, the TGI in the assay with HOP-62 NSCLC, in the assay on SNB-19 CNS, with SK-MEL-2 melanoma and in the assay with CAKI-1 renal was over 62.5 µM in each case.

Take `CC1(C)CC(=O)C(C=NC(=O)c2ccncc2)=C(O)C1`: the TGI in the assay on EKVX NSCLC, with NCI-H23 lung, in the assay with NCI-H460 lung, in the assay on SF-539 CNS, in the assay with PC-3 prostate and in the assay with OVCAR-3 ovarian was over 100 µM throughout. Besides, the TGI in the assay with HOP-62 NSCLC, in the assay with SNB-19 CNS, in the assay with SK-MEL-2 melanoma and with CAKI-1 renal was over 100 µM in each case.

With `Cc1nc(-[n+]2nc(-c3ccncc3)nn2-c2ccccc2)sc1C`, the TGI with EKVX NSCLC was over 100 µM; in the assay on NCI-H23 lung, over 100 µM; with SF-539 CNS it was 69.2 µM; with PC-3 prostate, over 100 µM; with HOP-62 NSCLC, 31.9 µM; with SNB-19 CNS, over 100 µM. Also, the TGI with SK-MEL-2 melanoma and with CAKI-1 renal was over 100 µM throughout.

In the case of `CCN1C(=O)N(CC)C2C1NN=c1s/c(=C3\C(=O)N(CC(C)(C)C)c4ccccc43)c(=O)n12` (centres undefined), the GI50 is 5.07 µM in the assay with EKVX NSCLC; 3.39 µM with NCI-H23 lung; 3.39 µM in the assay with NCI-H460 lung; 2.95 µM with SF-539 CNS; 4.31 µM in the assay on PC-3 prostate; 3.17 µM in the assay on OVCAR-3 ovarian. Further, the GI50 is 4.93 µM in the assay with HOP-62 NSCLC, 4.05 µM with SNB-19 CNS, 11.3 µM in the assay on SK-MEL-2 melanoma and 1.84 µM with CAKI-1 renal. Moreover, the TGI in the assay on EKVX NSCLC stood at 54.2 µM; in the assay with NCI-H23 lung, 14.5 µM; with NCI-H460 lung, 13.4 µM; in the assay with SF-539 CNS, 11.1 µM; in the assay with PC-3 prostate it was 31.5 µM; in the assay on OVCAR-3 ovarian it was 12.1 µM. The TGI turned out to be 22.8 µM in the assay with HOP-62 NSCLC, 16 µM in the assay on SNB-19 CNS, 33.1 µM with SK-MEL-2 melanoma and 22.2 µM in the assay with CAKI-1 renal.

For the compound `CCOC(=O)/C=C(/C)Sc1cc(O)c2ccccc2c1O`, the GI50 in the assay with EKVX NSCLC is 3.89 µM; in the assay on NCI-H23 lung, 2.07 µM; with NCI-H460 lung, 13.9 µM; with SF-539 CNS it was 4.84 µM; with PC-3 prostate, 4.59 µM; in the assay on OVCAR-3 ovarian, 2 µM. The GI50 with HOP-62 NSCLC was 3.02 µM; with SNB-19 CNS, 4.05 µM; in the assay with CAKI-1 renal, 7.33 µM. In addition, the TGI turned out to be 21.2 µM with EKVX NSCLC; 5.67 µM in the assay on NCI-H23 lung; 30.4 µM with NCI-H460 lung; 11.7 µM in the assay on SF-539 CNS; 22.8 µM in the assay with PC-3 prostate; 5.1 µM in the assay on OVCAR-3 ovarian. The TGI was 12.9 µM in the assay with HOP-62 NSCLC, 17 µM in the assay with SNB-19 CNS and 20 µM in the assay on CAKI-1 renal.

Regarding `O=C(O)CC(NC(=O)CP(=O)(O)O)C(=O)O` (centres undefined), the TGI in the assay with EKVX NSCLC was 7860 µM; in the assay on NCI-H23 lung, over 10000 µM; in the assay with NCI-H460 lung, over 8670 µM; in the assay on SF-539 CNS it was over 10000 µM; with PC-3 prostate, over 10000 µM; in the assay with OVCAR-3 ovarian, over 10000 µM. In addition, the TGI was 3760 µM with HOP-62 NSCLC, over 10000 µM in the assay on SNB-19 CNS, over 10000 µM with SK-MEL-2 melanoma and 7240 µM in the assay on CAKI-1 renal. Also, the GI50 with NCI-H460 lung was 79.5 µM; with SF-539 CNS, 89.5 µM; in the assay with SNB-19 CNS, 72.6 µM; in the assay with CAKI-1 renal it was 272 µM.

Consider `CC(=O)Oc1ccccc1C(=O)Nc1ncc([N+](=O)[O-])s1`, for which the GI50 with EKVX NSCLC is 2.66 µM; with NCI-H23 lung it was 1.8 µM; in the assay on NCI-H460 lung, 2.76 µM; in the assay on SF-539 CNS, 2.9 µM; with PC-3 prostate, 1.66 µM; with OVCAR-3 ovarian, 2.76 µM. The GI50 in the assay on HOP-62 NSCLC is 4.45 µM; in the assay on SNB-19 CNS, 2.05 µM; in the assay with SK-MEL-2 melanoma, 2.05 µM; in the assay with CAKI-1 renal it was 2.64 µM. Moreover, the TGI in the assay on EKVX NSCLC is over 100 µM; in the assay with NCI-H23 lung, 6.39 µM and > 63 µM; with NCI-H460 lung, 12.2 µM and > 100 µM; in the assay on SF-539 CNS, 20.6 µM and > 100 µM; in the assay on PC-3 prostate, 6.42 µM and > 51.6 µM; in the assay on OVCAR-3 ovarian it was 13.1 µM and 36.6 µM. Besides, the TGI was over 75.6 µM in the assay with HOP-62 NSCLC; 45.7 µM and > 100 µM in the assay on SNB-19 CNS; over 100 µM with CAKI-1 renal.

Consider `Cc1nn(C(=O)c2ccc(Cl)cc2)c2c1C(/C=C/c1ccccc1)SC(N)=N2` (centres undefined), for which the TGI with EKVX NSCLC, in the assay with NCI-H23 lung, in the assay with NCI-H460 lung, in the assay with SF-539 CNS, in the assay on PC-3 prostate and in the assay on OVCAR-3 ovarian was over 10 µM throughout. In addition, the TGI in the assay on HOP-62 NSCLC, in the assay on SNB-19 CNS, in the assay with SK-MEL-2 melanoma and with CAKI-1 renal was over 10 µM throughout.

Turning to `CC(C)(S)C(N)C(=O)O` (centres undefined), the GI50 was 1190 µM with EKVX NSCLC; 1510 µM in the assay on NCI-H23 lung; 937 µM in the assay on NCI-H460 lung; 1420 µM in the assay with SF-539 CNS; 1320 µM in the assay on PC-3 prostate; 1250 µM in the assay with OVCAR-3 ovarian. The GI50 in the assay with HOP-62 NSCLC was over 5000 µM; in the assay on SNB-19 CNS, 3370 µM; with SK-MEL-2 melanoma, 2390 µM; with CAKI-1 renal, 983 µM. Besides, the TGI with EKVX NSCLC was 3600 µM and > 100 µM; with NCI-H23 lung, over 5000 µM; in the assay on NCI-H460 lung it was 2730 µM and > 100 µM; in the assay with SF-539 CNS, 4370 µM and > 100 µM; in the assay on PC-3 prostate, over 5000 µM; in the assay on OVCAR-3 ovarian, 3990 µM and > 100 µM. The TGI with HOP-62 NSCLC is over 5000 µM; in the assay on SNB-19 CNS, over 5000 µM; in the assay on SK-MEL-2 melanoma, over 5000 µM; with CAKI-1 renal, 2570 µM and > 100 µM.
